The results in this text go back to PubChem BioAssay (NCI).

Test systems include SK-MEL-5 melanoma; HCT-116 colon; MDA-MB-435; SW-620 colon; M14 melanoma; OVCAR-8 ovarian; SNB-75 CNS; UACC-257 melanoma; A498 renal; HOP-92 NSCLC.
What all share (assay): NCI anticancer screen, dose series, 48 h

“And” between values parts separate entries of the source, which are not always exact repeats. Identical values can stand only once.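 How tested: cells in 96-well plates exposed to compound for 48 hours at five concentrations. GI50 is the concentration that inhibits growth by half. TGI is the concentration that stops growth completely.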

Turning to `NC1=CC(=O)C(=O)c2cccnc21`, the GI50 was 1.51 µM in the assay on SK-MEL-5 melanoma; 3 µM in the assay with HCT-116 colon; 1.74 µM with MDA-MB-435; 8.67 µM in the assay on SW-620 colon; 1.83 µM with M14 melanoma; 3.21 µM with OVCAR-8 ovarian. The values for the GI50 with SNB-75 CNS, with UACC-257 melanoma and in the assay on A498 renal were 3.02 µM, 2.23 µM and 10.2 µM, respectively. Further, the TGI with SK-MEL-5 melanoma is 2.84 µM; in the assay with HCT-116 colon it was 12.5 µM; in the assay with MDA-MB-435, 3.17 µM; with SW-620 colon, 24.3 µM; with M14 melanoma, 6.29 µM; with OVCAR-8 ovarian, 16.6 µM. Also, the TGI in the assay with SNB-75 CNS is 15.3 µM; in the assay on UACC-257 melanoma it was 6.7 µM; in the assay on A498 renal, 22.7 µM.

As for `O=C(CCCn1ccnc1[N+](=O)[O-])NCCn1cnc([N+](=O)[O-])c1`, the TGI in the assay with SK-MEL-5 melanoma, in the assay on HCT-116 colon, with MDA-MB-435, in the assay with SW-620 colon, in the assay on M14 melanoma and in the assay with OVCAR-8 ovarian was more than 100 µM throughout. The TGI in the assay on SNB-75 CNS and in the assay with UACC-257 melanoma was more than 100 µM each time.

Turning to `COc1ccc(S(=O)(=O)O)cc1NS(=O)(=O)c1ccc(C)cc1`, the TGI in the assay on SK-MEL-5 melanoma, with HCT-116 colon, in the assay on MDA-MB-435, in the assay on SW-620 colon, in the assay on M14 melanoma and in the assay on OVCAR-8 ovarian was more than 100 µM each time. Further, the TGI in the assay with SNB-75 CNS, with UACC-257 melanoma and with A498 renal was more than 100 µM in each case.

For the molecule `CCCNC(=O)c1cc2ccccc2cc1C(=O)OC`, the TGI in the assay on SK-MEL-5 melanoma, in the assay with HCT-116 colon, with SW-620 colon, in the assay on M14 melanoma, with OVCAR-8 ovarian and in the assay with HOP-92 NSCLC was more than 100 µM each time. For the same molecule, the TGI in the assay on SNB-75 CNS is 75.8 µM; in the assay with UACC-257 melanoma, more than 100 µM; with A498 renal, more than 100 µM.

`Cc1cc2nc3ccc(N=Nc4ccc(N(C)C)cc4)cc3n(-c3ccccc3)c-2cc1=N`: the GI50 in the assay with SK-MEL-5 melanoma was 0.0235 µM; in the assay on HCT-116 colon, 0.0177 µM; in the assay with MDA-MB-435, 0.0402 µM; in the assay on SW-620 colon, 0.0221 µM; in the assay with M14 melanoma, 0.0657 µM; with OVCAR-8 ovarian, 0.0232 µM and 0.0414 µM. In addition, the GI50 in the assay with HOP-92 NSCLC was 0.0325 µM; in the assay on SNB-75 CNS, 0.05 µM; in the assay with A498 renal it was 0.0308 µM. Also, the TGI came out at 0.143 µM in the assay with SK-MEL-5 melanoma; 0.116 µM in the assay with HCT-116 colon; 0.165 µM with MDA-MB-435; 0.12 µM with SW-620 colon; 0.239 µM with M14 melanoma; 0.386 µM in the assay on HOP-92 NSCLC. In addition, the TGI in the assay with SNB-75 CNS was determined as 1.25 µM; in the assay with A498 renal, 1.09 µM.

As to `O=C1OCC2=C1C(c1cccc(F)c1)c1cc3c(cc1N2CCO)OCCO3` (stereo not given), the GI50 with SK-MEL-5 melanoma is 0.162 µM; in the assay on HCT-116 colon, 0.204 µM; in the assay on SW-620 colon, 0.186 µM; in the assay with M14 melanoma, 0.105 µM; in the assay with OVCAR-8 ovarian, 0.244 µM; in the assay with HOP-92 NSCLC, 2.07 µM. For the same molecule, the GI50 with SNB-75 CNS was 0.113 µM; in the assay with UACC-257 melanoma, more than 20 µM; in the assay with A498 renal, 0.111 µM. Also, the TGI was more than 50 µM with HCT-116 colon; more than 50 µM in the assay with SW-620 colon; more than 50 µM in the assay on M14 melanoma; more than 50 µM in the assay with OVCAR-8 ovarian; more than 50 µM in the assay with HOP-92 NSCLC; 0.38 µM with SNB-75 CNS. In addition, the TGI is more than 50 µM in the assay on UACC-257 melanoma and 0.438 µM in the assay on A498 renal.

Regarding `BrP(NC1CCCCCC1)(c1ccccc1)(c1ccccc1)c1ccccc1`, the TGI in the assay with SK-MEL-5 melanoma is 3.18 µM; in the assay with HCT-116 colon, more than 100 µM; in the assay on MDA-MB-435, 7.63 µM; in the assay with SW-620 colon, 13.6 µM; in the assay on M14 melanoma, more than 100 µM; in the assay on OVCAR-8 ovarian, 10.7 µM. Moreover, the values for the TGI in the assay with UACC-257 melanoma and in the assay with A498 renal were 6.3 µM and 7.26 µM, respectively.

As for `Nc1c(C(=O)Nc2cccc3ccccc23)sc2nc3c(cc12)CCCC3`, the GI50 in the assay with SK-MEL-5 melanoma is 0.459 µM; with HCT-116 colon, 0.8 µM; with SW-620 colon it was 0.552 µM; in the assay with M14 melanoma, 0.464 µM; in the assay with OVCAR-8 ovarian, 4.56 µM; in the assay with HOP-92 NSCLC, 0.0769 µM. Besides, the GI50 in the assay with SNB-75 CNS was 1.04 µM; with UACC-257 melanoma, 40.5 µM; in the assay on A498 renal it was 0.366 µM. Moreover, the TGI in the assay on SK-MEL-5 melanoma is 10.7 µM; in the assay with HCT-116 colon, more than 100 µM; in the assay on SW-620 colon it was more than 100 µM; with M14 melanoma, more than 100 µM; with OVCAR-8 ovarian it was more than 100 µM; in the assay with HOP-92 NSCLC, 9.29 µM. The values for the TGI in the assay with SNB-75 CNS, with UACC-257 melanoma and in the assay with A498 renal were more than 100 µM, more than 100 µM and 7.78 µM, respectively.

For the molecule `O=S(=O)(NC(=S)Nc1ccccc1)c1ccc(N2N=C3c4ccccc4CC3C2c2ccc(Cl)cc2)cc1` (stereo not given), the GI50 is 20.4 µM with SK-MEL-5 melanoma; 21.6 µM in the assay on HCT-116 colon; 44.8 µM with MDA-MB-435; 29.7 µM with SW-620 colon; 36.4 µM with M14 melanoma; 26.8 µM in the assay with OVCAR-8 ovarian. The GI50 with HOP-92 NSCLC was 18.1 µM; in the assay on SNB-75 CNS it was 39.7 µM; in the assay on UACC-257 melanoma it was 29.5 µM. Moreover, the TGI in the assay on SK-MEL-5 melanoma is 40.9 µM; with HCT-116 colon, 55.2 µM; with MDA-MB-435, more than 100 µM; in the assay on SW-620 colon, 75.7 µM; with M14 melanoma it was more than 100 µM; with OVCAR-8 ovarian, 71.1 µM. Further, the TGI with HOP-92 NSCLC is 40.2 µM; with SNB-75 CNS it was more than 100 µM; with UACC-257 melanoma, 70.5 µM.

On to `O=C1Cc2ccccc2N1/N=C\c1ccc(O)cc1`, for which the TGI in the assay with SK-MEL-5 melanoma, in the assay on HCT-116 colon, in the assay with SW-620 colon, in the assay with M14 melanoma, with OVCAR-8 ovarian and in the assay with HOP-92 NSCLC was more than 100 µM in each case. Further, the TGI with SNB-75 CNS was 70.5 µM; in the assay on UACC-257 melanoma, more than 100 µM; with A498 renal, more than 100 µM.

Regarding `CSc1nc2c(nc(N)n2C2OCC(O)C(O)C2O)c(=O)[nH]1` (stereo not given), the TGI with SK-MEL-5 melanoma, in the assay on HCT-116 colon, with SW-620 colon, with M14 melanoma, with OVCAR-8 ovarian and in the assay on HOP-92 NSCLC was more than 100 µM in each case. Also, the TGI with SNB-75 CNS, in the assay on UACC-257 melanoma and in the assay with A498 renal was more than 100 µM throughout.
